In patent publication US20110274651A1, “Noscapine and Noscapine Analogs and Their Use in treating Infectious Diseases by Tubulin Binding Inhibition” (priority 2008, published 2011):
Where two headings read alike, the source gives them in different places.

Legend:
tubulin [1] = conditions: literature values, refs [18], [12], [43]; read-out: dissociation constant (Kd) binding to tubulin; cited from earlier work
vaccinia virus = test: Plaque assay of vaccinia virus in BSC-40 cells; format: cell-based
tubulin [2] = target: T1, tubulin; test: Tubulin binding assay (fluorescence titration, quenching of intrinsic tubulin fluorescence); design: species or system Mammalian; conditions: double reciprocal plots; 0-100 μM ligand, 2 μM tubulin, 45 min at 37° C.; read-out: dissociation constant (Kd) binding to tubulin
T1 construct: other: double reciprocal plots; 0-100 μM ligand, 2 μM tubulin, 45 min at

| SMILES | Kd (tubulin [1]) [µM] | Kd (tubulin [2]) [µM] | also measured |
| --- | --- | --- | --- |
| COc1ccc2c(c1OC)C(=O)O[C@@H]2[C@H]1c2c(c(Br)c3c(c2OC)OCO3)CCN1C [9-Br-nos, (S)-6,7-dimethoxy-3-((R)-4-methoxy-6-methyl-9-bromo-5,6,7,8-tetrahydro-[1,3]dioxolo[4,5-g]isoquinolin-5-yl)isobenzofuran-1(3H)-one] | 54 ± 9.1 |  | spread of vaccinia virus in BSC-40 cells (vaccinia virus): inhibited; prevention of infection (vaccinia virus; 25 uM in 0.1% DMSO): does not prevent infection; plaque appearance (vaccinia virus; 25 uM in 0.1% DMSO, FIG. 1): only small “pinpoint” plaques are evident |
| COc1ccc2c(c1OC)C(=O)O[C@@H]2[C@H]1c2c(c(Cl)c3c(c2OC)OCO3)CCN1C [9-Cl-nos] | 40 ± 8 |  |  |
| COc1ccc2c(c1OC)C(=O)O[C@@H]2[C@H]1c2c(c(F)c3c(c2OC)OCO3)CCN1C [9-F-nos, (S)-6,7-dimethoxy-3-((R)-4-methoxy-6-methyl-9-fluoro-5,6,7,8-tetrahydro-[1,3]dioxolo[4,5-g]isoquinolin-5-yl)isobenzofuran-1(3H)-one] |  | 81 ± 8 |  |
| COc1ccc2c(c1OC)C(=O)O[C@@H]2[C@H]1c2c(c(I)c3c(c2OC)OCO3)CCN1C [9-I-nos, (S)-6,7-dimethoxy-3-((R)-4-methoxy-6-methyl-9-iodo-5,6,7,8-tetrahydro-[1,3]dioxolo[4,5-g]isoquinolin-5-yl)isobenzofuran-1(3H)-one] |  | 22 ± 4 |  |
| COc1ccc2c(c1OC)C(=O)O[C@@H]2[C@H]1c2c(cc3c(c2OC)OCO3)CCN1C [noscapine, (S)-6,7-dimethoxy-3-((R)-4-methoxy-6-methyl-5,6,7,8-tetrahydro-[1,3]dioxolo[4,5-g]isoquinolin-5-yl)isobenzofuran-1(3H)-one] | 144 ± 2.8 |  |  |
